The results in this text go back to PubChem BioAssay (NCI).

Each structure is given as a SMILES string.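 48-hour exposure; five concentrations; linearly interpolated endpoints. TGI: concentration producing complete growth inhibition.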

Holding throughout (experiment): NCI anticancer screen, dose series, 48 h
Test [1] deals with HS 578T breast.
Test [2] relates to MALME-3M melanoma.
For test [3], the system named is NCI-H23 lung.
Test [4] has as its system SN12C renal.
Test [5] deals with HCC-2998 colon.
Test [6] concerns HCT-116 colon.
For test [7], the system named is T-47D breast.
For test [8], the system named is SNB-75 CNS.
Test [9] deals with A549 NSCLC.
Test [10] relates to NCI-H226 lung.
Test [11] deals with TK-10 renal.
The test system of test [12] is COLO 205 colon.
For test [13], the system named is KM12 colon.

On to `N#CS/C(C(Cl)=C(Cl)Cl)=C(/Cl)[N+](=O)[O-]`, for which the TGI in test [1] is more than 61.4 µM; in test [2] it was 3.25 µM; in test [3] it was 7.95 µM; in test [4], 4.92 µM; in [5] it was 34.6 µM; in test [6], 3 µM. Also, the TGI came out at 4.86 µM in [7]; 52 µM in test [8]; 53.8 µM in [9]; 19.9 µM in test [10]; 4.66 µM in [11]; 3.66 µM in test [12]. This compound also yielded a TGI in [13] of 32.4 µM.
For `COc1cc2c(cc1C)NC(=O)/C2=C/c1c(Cl)[nH]c2cc(C)c(OC)cc12`, the TGI stood at 46 µM in [1]; 25.4 µM in [2]; 11.6 µM in test [3]; 8.18 µM in test [4]; 11 µM in test [5]; 18.1 µM in [6]. Further, the TGI in test [7] came to 25.8 µM; in test [8] it was 11.8 µM; in test [9], 28.7 µM; in test [10], 50.6 µM; in test [11] it was 18 µM; in [12], 12.7 µM. Also, in test [13], the TGI came out at 15.5 µM.
As for `NC(CCCCCP(=O)(O)O)C(=O)O` (configuration not stated), the TGI in test [1], in [3], in [4], in test [5], in test [6] and in test [7] was more than 100 µM throughout. The TGI in [8], in test [9], in test [11], in [12] and in [13] was more than 100 µM each time.
For `COc1ccc(C2CCc3nc4nc(N)nc(N)c4cc3C2)cc1` (configuration not stated), the TGI was more than 100 µM in [1]; more than 100 µM in [2]; 59.5 µM in test [4]; more than 100 µM in test [5]; more than 100 µM in test [6]; 44.7 µM in [7]. Moreover, the TGI was 5.09 µM in test [8]; more than 100 µM in test [9]; more than 100 µM in test [10]; 24.9 µM in test [11]; more than 100 µM in [12]; more than 100 µM in [13].
Turning to `NS(=O)(=O)c1nnc(NC(=O)CCC(=O)O)s1`, the TGI in test [1], in test [2], in [3], in test [4], in test [5] and in test [6] was more than 100 µM in each case. The TGI in test [7], in [9], in test [10], in test [11], in [12] and in test [13] was more than 100 µM each time.
Consider `CC(C)OP(=O)(OC(C)C)C(C(F)(F)F)C(F)(F)F`, for which the TGI in test [1], in test [2], in [3], in test [4], in test [5] and in test [6] was more than 100 µM in each case. The TGI in test [7], in test [8], in test [9], in [10], in test [11] and in test [12] was more than 100 µM each time. The compound further registered a TGI in test [13] of more than 100 µM.
In the case of `CN1CN(c2ccccc2)C2(CCNCC2)C1=O`, the TGI in test [1], in test [2], in test [3], in [4], in test [5] and in [6] was more than 100 µM throughout. Moreover, the TGI in [7], in test [8], in test [9], in [10], in test [11] and in [12] was more than 100 µM each time. Also, in test [13], the TGI was more than 100 µM.
Consider `CCCCc1ccc(Nc2nc3c(ncn3C3OC(COC(C)=O)C(OC(C)=O)C3OC(C)=O)c(=O)[nH]2)cc1` (configuration not stated), for which the TGI turned out to be 56 µM in test [1]; 36.8 µM in test [2]; 32.5 µM in test [3]; 42.3 µM in [4]; 35.5 µM in [5]; 31.9 µM in test [6]. Moreover, the TGI is 30 µM in [7]; more than 100 µM in test [9]; 60.6 µM in test [10]; more than 100 µM in [11]; 37.7 µM in test [12]; 35.2 µM in test [13].
Regarding `O=C1CCc2c3c(c4c([nH]c5ccccc54)c2CC1)C(=O)NC3=O`, the TGI in test [1] is more than 100 µM; in test [2] it was 12.6 µM; in test [3] it was more than 100 µM; in [4], more than 100 µM; in test [5], more than 100 µM; in test [6] it was more than 100 µM. The TGI in test [7] was 6.01 µM; in test [8] it was 0.61 µM; in test [9] it was more than 100 µM; in test [10], 23.7 µM; in test [11], 39.6 µM; in test [12] it was more than 100 µM. Also, the TGI in test [13] amounted to 18.4 µM.
For the compound `CCOC(=O)/C(C(=S)NC)=C(/N)N1CCCC1`, the TGI in test [1], in [2], in test [3], in test [4], in test [5] and in test [6] was more than 100 µM each time. Moreover, the TGI in test [7], in test [9], in test [10], in test [11], in [12] and in test [13] was more than 100 µM each time.
As for `CC(C)(C)OC(=O)N1C(C2=COc3ccccc3O2)=COc2ccccc21`, the TGI in test [1] is more than 100 µM; in [2], 58.1 µM; in test [3], 95.1 µM; in [4] it was more than 100 µM; in test [5], 37.2 µM; in test [6], 72.7 µM. For the same compound, the TGI in test [7] was 50.4 µM; in test [8], more than 100 µM; in [9], more than 100 µM; in test [10], 88.8 µM; in test [11], more than 100 µM; in test [12], 38.2 µM. The compound also displayed a TGI in test [13] of more than 100 µM.
